Key:
Type in all cases: physicochemical
[1] = pH-dependent solubility (NaOH titration, pH 3-8); conditions: 25° C.
Description: A titration and solubility determination of Compound 1 Hydrochloride Form A (Type 1 Lot) was performed using NaOH over a pH range of 3-8. A solution was produced at 25° C. with magnetic agitation by combining 100 mg Compound 1 Hydrochloride Form A (Type 1 Lot) into 5 mL deionized water to give a concentration of 20 mg/mL within a clean glass vessel. […] The solution was slowly basified using 1.0 N, 0.1 N, and 0.01 N NaOH (with the lower concentrations being used to finely adjust pH close to the end point target pH and avoid overshooting) to achieve pH values of 4, 5, 5.5, 6, 7, and 8. […] The concentration of the test solution was lowered at pH 6 from 20 mg/mL to 5 mg/mL with repeat testing at each concentration to illustrate salt impact. Each pH value was allowed to equilibrate to stability prior to solubility evaluation via HPLC assessment of the clarified liquors. Dilution by 100× or 50× into the working range was performed using deionized water.

[2] = Dynamic Vapor Sorption (DVS) analysis with XRPD after equilibration
Description: Sorption isotherms were obtained using a Hiden Isochema moisture sorption analyzer (model IGAsorp), controlled by IGAsorp Systems Software V6.50.48. The sample was maintained at a constant temperature (25° C.) by the instrument controls. The humidity was controlled by mixing streams of dry and wet nitrogen, with a total flow of 250 mL·min^−1. The instrument was verified for relative humidity content by measuring three calibrated Rotronic salt solutions (10%, 50%, 88%). The weight change of the sample was monitored as a function of humidity by a microbalance (accuracy+/−0.005 mg). A defined amount of sample was placed in a tared mesh stainless steel basket under ambient conditions. A full experimental cycle typically consisted of three scans (sorption, desorption and sorption) at a constant temperature (25° C.) and 10% RH intervals over a 0-90% range (60 minutes for each humidity level). […]
This water content decreased as relative humidity decreased in the first desorption cycle.
The solid absorbed 3.39% water over the humidity range. […] The profile was similar to that of Form C in Example 7.2.

[3] = Solution state stability of Compound 1 Hydrochloride (HPLC purity in stressing media, 25° C.)
Description: The solution state stability of Compound 1 Hydrochloride Form A (Type 1 Lot) was examined under various storage conditions within a suitable glass vessel with stirrer bead agitation at 25° C. Compound 1 Hydrochloride stock solution ([…]) in HPLC diluent (acetonitrile/water, 1:1) was prepared and 5 mL placed within suitable glass vessels with stirrer bead agitation at 25° C. An aliquot of the appropriate stressing medium (5 mL) was added to achieve a sample concentration of approximately 0.5 mg/mL. The samples were agitated and stored at 25° C. and the solutions assessed for HPLC purity for stability at particular time points.

[4] = Solid state stability under humid conditions (40° C./75% RH and 25° C./60% RH, two weeks)
Description: Stability of Compound 1 Hydrochloride Forms A, B, C, and D was evaluated under humid conditions. Samples of Forms A, B, C, and D were stored at 40° C./75% RH and 25° C./60% RH for a period of two weeks (loosely capped glass vials with approx. 200 mg solid). Solids were then re-analyzed using methods described herein. A summary of the results is provided in Table 12 (after storage at 25° C./60% RH) and Table 13 (after storage at 40° C./75% RH).

[5] = Solid state stability under desiccant conditions (two weeks)
Description: Stability of Compound 1 Hydrochloride Forms A and C was evaluated under desiccant conditions. Compound 1 Hydrochloride Form A (Type 1 Lot) and a mixture comprising Compound 1 Hydrochloride Form A (Type 2 Lot) and Form C were stored under desiccant conditions for a two week period. Solids were then re-analyzed using methods described herein.

Which “initial pH reading of solution” value ([1]; 20 mg/mL in deionized water, stable over 10 minutes) does the source give for COC(=O)c1ccc2c(c1)NC(=O)/C2=C(\Nc1ccc(N(C)C(=O)CN2CCN(C)CC2)cc1)c1ccccc1.Cl [Compound 1 Hydrochloride Form A (Type 1 Lot)] here?
Its value is 3.03.

And the “Solubility” value ([1]; pH 3.03, starting concentration 20 mg/mL)?
Its value is >20000 µg/mL.

What about the “Solubility” value ([1]; pH 4.0, starting concentration 20 mg/mL) of the same compound?
The value was >20000 µg/mL.

And the “Solubility” value ([1]; pH 5.0, starting concentration 20 mg/mL)?
Its value is 16000 µg/mL.

And the “Solubility” value ([1]; pH 5.5, starting concentration 20 mg/mL)?
The value was 700 µg/mL.

And the “Solubility” value ([1]; pH 6.0, starting concentration 5 mg/mL)?
The value was 60 µg/mL.

And the “Solubility” value ([1]; pH 6.0, starting concentration 20 mg/mL)?
The value was 60 µg/mL.

And the “Solubility” value ([1]; pH 7.0, starting concentration 5 mg/mL)?
The value was 50 µg/mL.

And the “Solubility” value ([1]; pH 8.0, starting concentration 5 mg/mL)?
Its value is 1 µg/mL.

What about the “XRPD across the humidity range over the course of DVS analysis” value ([2]; 0-90% RH) of the same compound?
The value was “Form A remained”.

And the “water absorbed over the humidity range (DVS)” value ([2]; 25° C., 0-90% RH)?
Its value is 13.4 wt %.

What about the “reversibility of water uptake (DVS)” value ([2]; as relative humidity decreased) of the same compound?
The value was “reversible”.

And the “water uptake (DVS)” value ([2]; high humidity, comparison stated in Example 7.3)?
The value was “above 13%”.

What about the “water uptake up to 30% RH (DVS)” value ([2]; up to 30% RH) of the same compound?
Its value is 8.5 wt %.

And the “HPLC (%)” value ([3]; 1 M HCl, 1 h)?
Its value is 99.53%.

And the “HPLC (%)” value ([3]; 1 M HCl, 6 h)?
Its value is 99.29%.

And the “HPLC (%)” value ([3]; 1 M HCl, 24 h)?
Its value is 96.56%.

And the “HPLC (%)” value ([3]; 1 M HCl, 3 d)?
The value was 95.63%.

And the “HPLC (%)” value ([3]; 1 M HCl, 7 d)?
Its value is 90.58%.

What about the “HPLC (%)” value ([3]; 1 M NaOH, 1 h) of the same compound?
Its value is 0.49%.

What about the “HPLC (%)” value ([3]; 1 M NaOH, 6 h) of the same compound?
Its value is 0.65%.

What about the “HPLC (%)” value ([3]; 5% H2O2, 1 h) of the same compound?
Its value is 80.39%.

What about the “HPLC (%)” value ([3]; 5% H2O2, 6 h) of the same compound?
Its value is 46.74%.

What about the “HPLC (%)” value ([3]; 5% H2O2, 24 h) of the same compound?
The value was 0.42%.

And the “HPLC (%)” value ([3]; Control (water), 1 h)?
Its value is 99.68%.

What about the “HPLC (%)” value ([3]; Control (water), 6 h) of the same compound?
Its value is 99.69%.

What about the “HPLC (%)” value ([3]; Control (water), 24 h) of the same compound?
The value was 99.54%.

What about the “HPLC (%)” value ([3]; Control (water), 3 d) of the same compound?
The value was 99.42%.

And the “HPLC (%)” value ([3]; Control (water), 7 d)?
Its value is 99.50%.

What about the “TGA After Storage: further loss above/post 200° C.” value ([4]; 25° C./60% RH) of the same compound?
Its value is 100° C., further loss of 0.96%.

And the “TGA After Storage: total water content” value ([4]; 25° C./60% RH)?
The value was “of 10.9%”.

What about the “XRPD After Storage” value ([4]; 25° C./60% RH) of the same compound?
The value was “Form A”.

What about the “TGA After Storage: further loss above/post 200° C.” value ([4]; 40° C./75% RH) of the same compound?
The value was 100° C., further loss of 1.05%.

And the “TGA After Storage: total water content” value ([4]; 40° C./75% RH)?
The value was “of 11.18%”.

What about the “TGA After Storage: weight reduction up to 100° C.” value ([4]; 40° C./75% RH) of the same compound?
The value was “Weight reduction of 10.13% up to”.

What about the “XRPD After Storage” value ([4]; 40° C./75% RH) of the same compound?
Its value is “Form A”.

And the “Appearance After Storage” value [5]?
Its value is “Yellow powder”.

And the TGA weight reduction [5]?
Its TGA weight reduction is “Weight reduction of 5.6%”.

And the XRPD [5]?
The XRPD was “Form A”.
